# Experimental data as given in PubChem BioAssay AID493105 (The Scripps Research Institute Molecular Screening Center, 2011).
# Activity calls are given as the source filed them. No rule for the calls is given here.
# Assays:
# Test in all cases: LYPLA1 and LYPLA2 inhibitors, biochemical, gel-based ABPP, fluorescence, recombinant and endogenous enzyme (AID 493105)
# rhLYPLA2 = conditions: fluorescent probe labeling, membrane fraction, at 20 µM, stronger effect = higher value
# emLYPLA2 = conditions: fluorescent probe labeling, membrane fraction, at 20 µM, stronger effect = higher value
# rhLYPLA1 = conditions: fluorescent probe labeling, soluble fraction, at 20 µM, stronger effect = higher value
# emLYPLA1 = conditions: fluorescent probe labeling, membrane fraction, at 20 µM, stronger effect = higher value
SMILES,inhibition (rhLYPLA2),inhibition (emLYPLA2),inhibition (rhLYPLA1),inhibition (emLYPLA1)
N#Cc1c(N)nc(SCc2ccncc2)c(C#N)c1-c1cccs1,11% (inactive),16% (inactive),3% (inactive),10% (inactive)
O=C1N=C(N2CCN(Cc3ccccc3)CC2)S/C1=C/c1cccs1,2% (inactive),0% (inactive),0% (inactive),4% (inactive)
C/C(=C\c1ccccc1)CN1CCN(c2cccc(Cl)c2)CC1,0% (inactive),0% (inactive),0% (inactive),0% (inactive)
CC(NC(=O)c1ccco1)C(=O)N1CCN(c2cccc(C(F)(F)F)c2)CC1 (stereo not drawn),5% (inactive),12% (inactive),20% (inactive),0% (inactive)
COc1ccc2c(c1)C(=O)[C@H](O)[C@@H](c1ccc(OC)c(Br)c1)O2,51%,73%,0% (inactive),0% (inactive)
O=C(CCN1CCN(c2ccc([N+](=O)[O-])cc2)CC1)c1ccc(Cl)cc1,6% (inactive),1% (inactive),0% (inactive),9% (inactive)
COc1ccc(N2CCN(C(=O)CNC(=O)c3cn(-c4ccccc4OC)c(=O)c4ccccc34)CC2)cc1,26% (inactive),34%,0% (inactive),15% (inactive)
Cc1ccc(C)c(C(=O)CCC(=O)N2CCN(c3cccc(C(F)(F)F)c3)CC2)c1,0% (inactive),4% (inactive),31%,4% (inactive)
COc1ccc(/C=C2/Sc3ccc(C(=O)NCCCN4CCOCC4)cc3NC2=O)cc1OC,1% (inactive),0% (inactive),0% (inactive),5% (inactive)
Clc1ccc(C(c2ccc(Cl)cc2)n2cc[n+](CC(OCc3ccc(Cl)cc3Cl)c3ccc(Cl)cc3Cl)c2)cc1 (stereo not drawn),0% (inactive),0% (inactive),0% (inactive),0% (inactive)
O=C(CCCCCCN1C(=O)c2ccccc2C1=O)N1CCC(c2ccccc2)C1 (stereo not drawn),2% (inactive),17% (inactive),17% (inactive),0% (inactive)
O=C(NCCNC(=O)c1cc(OCC(F)(F)F)ccc1OCC(F)(F)F)Nc1cccc(C(F)(F)F)c1,0% (inactive),7% (inactive),57%,12% (inactive)
COc1ccc(-n2nc(C(=O)NCC(=O)N3CCN(Cc4ccccc4)CC3)c3ccccc3c2=O)c(OC)c1,30%,46%,31%,0% (inactive)
Cc1ccc([N+](=O)[O-])c(OCCCN2CCC(Cc3ccccc3)CC2)c1,0% (inactive),2% (inactive),7% (inactive),0% (inactive)
COc1ccc(-n2nc(C(=O)NCC(=O)N3CCN(Cc4ccc5c(c4)OCO5)CC3)c3ccccc3c2=O)cc1OC,50%,68%,35%,8% (inactive)
O=C(CN1CCN(C(=O)c2ccccc2)CC1)Nc1cc(S(=O)(=O)N2CCCC2)ccc1Cl,3% (inactive),14% (inactive),55%,21% (inactive)
CC1CCc2c(sc(NC(=O)CN3CCN(C(=O)c4ccco4)CC3)c2C#N)C1 (stereo not drawn),0% (inactive),0% (inactive),16% (inactive),3% (inactive)
O=C(COc1ccc(Br)cc1)N1CCN(c2ccc([N+](=O)[O-])c(N3CCCCC3)c2)CC1,7% (inactive),3% (inactive),45%,0% (inactive)
O=C(CCCCn1c(=O)[nH]c2ccccc2c1=O)N1CCN(c2cccc(C(F)(F)F)c2)CC1,0% (inactive),0% (inactive),0% (inactive),0% (inactive)
CC(=O)N1CCC2(CC1)C/C(=N\NC(=S)Nc1ccccc1C)c1cc(O)ccc1O2,3% (inactive),5% (inactive),0% (inactive),2% (inactive)
O=[N+]([O-])c1ccc(N2CCC(=NOCc3ccc(Cl)cc3)CC2)cc1,0% (inactive),13% (inactive),22% (inactive),12% (inactive)

SMILES,inhibition (rhLYPLA2),inhibition (emLYPLA2),inhibition (rhLYPLA1),inhibition (emLYPLA1)
COc1ccc(-n2c(C)c([N+](=O)[O-])c3ccc(O)c(CN4CCCCC4)c32)cc1,0% (inactive),0% (inactive),21% (inactive),0% (inactive)
O=C(CN1CCN(C(=O)c2ccco2)CC1)Nc1cc(Cl)ccc1Cl,0% (inactive),0% (inactive),60%,37%
O=c1ccc2ccc(Oc3ccc([N+](=O)[O-])cc3Cl)cc2o1,6% (inactive),17% (inactive),0% (inactive),0% (inactive)
CCC(=O)N1CCN(c2ccc(NC(=S)NC(=O)c3ccc(OC)c([N+](=O)[O-])c3)cc2)CC1,21% (inactive),40%,25% (inactive),13% (inactive)
COc1ccc(C(CNC(=O)COc2ccc(-c3ccccc3)cc2)N2CCOCC2)cc1 (stereo not drawn),0% (inactive),1% (inactive),5% (inactive),0% (inactive)
Cc1ccc(CN2CCN(/N=C/C=C/c3ccccc3[N+](=O)[O-])CC2)cc1,10% (inactive),26% (inactive),27% (inactive),0% (inactive)
Cc1c(Br)c([N+](=O)[O-])nn1CC(=O)Nc1ccc(Cc2ccncc2)cc1,0% (inactive),8% (inactive),0% (inactive),8% (inactive)
CCOc1cc(CN2CCCC(C(=O)c3cccc(C(F)(F)F)c3)C2)ccc1O (stereo not drawn),0% (inactive),0% (inactive),2% (inactive),0% (inactive)
CC1CN(Cc2cc(=O)oc3cc(O)c(Cl)cc23)CC(C)O1 (stereo not drawn),3% (inactive),0% (inactive),0% (inactive),0% (inactive)
COc1ccc(C(=O)NC(=S)Nc2ccc(N3CCN(C(C)=O)CC3)cc2)cc1[N+](=O)[O-],15% (inactive),31%,44%,10% (inactive)
Cc1nn(-c2ccccc2)c(N2CCCC2)c1/C=N/Nc1ccc(S(N)(=O)=O)cc1[N+](=O)[O-],0% (inactive),1% (inactive),7% (inactive),0% (inactive)
COc1ccc(-n2nc(C(=O)NCC(=O)N3CCN(c4cccc(Cl)c4)CC3)c3ccccc3c2=O)c(OC)c1,61%,83%,0% (inactive),16% (inactive)
CC(=O)c1ccc(N2CCN(C(=O)c3cccc(Oc4ccccc4)c3)CC2)cc1,12% (inactive),0% (inactive),29% (inactive),0% (inactive)
NS(=O)(=O)c1ccc(CCNC(=O)c2cc([N+](=O)[O-])ccc2N2CCCCC2)cc1,0% (inactive),0% (inactive),49%,0% (inactive)
CC(=O)N1CCC2(CC1)C/C(=N\NC(=S)Nc1ccc(C)cc1)c1cc(O)ccc1O2,0% (inactive),1% (inactive),3% (inactive),0% (inactive)
CCC(=O)N1CCN(c2ccc(NC(=S)NC(=O)c3cccc([N+](=O)[O-])c3)cc2)CC1,5% (inactive),6% (inactive),0% (inactive),8% (inactive)
CCN(CC)S(=O)(=O)c1cccc(-c2nnc(SCCOc3ccccc3)o2)c1,19% (inactive),17% (inactive),8% (inactive),0% (inactive)
O=C(COc1ccc(Cl)cc1)N1CCN(c2ccc([N+](=O)[O-])c(N3CCOCC3)c2)CC1,3% (inactive),0% (inactive),47%,0% (inactive)
Cc1ccc(OCC(=O)N2CCN(c3ccc([N+](=O)[O-])c(N4CCOCC4)c3)CC2)cc1,0% (inactive),0% (inactive),10% (inactive),0% (inactive)
Cc1[nH]c2ccccc2c1C(=O)CN1CCN(C/C=C/c2ccccc2)CC1,0% (inactive),0% (inactive),0% (inactive),0% (inactive)
O=C(N1CCOCC1)n1nnc2ccccc21,76%,88%,98%,99%
